From patent publication US20150302167A1, “SYSTEM AND METHOD FOR DEVELOPMENT OF THERAPEUTIC SOLUTIONS” (CELLWORKS RESEARCH INDIA PRIVATE LIMITED, priority 2012, published 2015)

B1: AMG714: RA drug with published clinical trial data, listed among various approved drugs (antibody, chains of the INN, looked up, V domains shown)
VH: EVQLVQSGAEVKKPGESLKISCKVSGYFFTTYWIGWVRQMPGKGLEYMGIIYPGDSDTRYSPSFQGQVTISADKSISTAYLQWSSLKASDTAMYYCARGGNWNCFDYWGQGTLVTVSS
VL: EIVLTQSPGTLSLSPGERATLSCRASQSVSSSYLAWYQQKPGQAPRLLIYGASRRATGIPDRFSGSGSGTDFTLTISRLEPEDFAVYYCQRYGSSHTFGQGTKLEIS

What was measured:
[1] = Type: Drug; published clinical trial data; cited from earlier work
[2] = Published clinical trial data of RA drugs: ACR20/ACR50/ACR70 response, drug vs placebo; format: in vivo, human; details: for ACR20 Diff. / ACR50 Diff. / ACR70 Diff.: Type: Diff. (drug minus placebo), * significant difference > 15%; for Highest Significant Clinical Disease Remission Score: highest ACR level with significant difference > 15% over placebo
Text: In another embodiment, American College of Rheumatoid (ACR) scoring system and DAS28 scoring system are used to determine the extent of improvement in the RA disease symptoms on treatment with a drug.
In another embodiment, the ACR scoring system involves three main scores: ACR20 score pertaining to 20% improvement in the disease, ACR50 score pertaining to 50% improvement in the disease and ACR70 score pertaining to 70% improvement in the disease. Clinically, the calculation of the ACR score is dependent on inputs from a patient Health Assessment Questionnaire (HAQ) and analysis of the percentage improvement in the RA disease phenotypes. […]

Molecule	ACR20 [1] [%]	ACR50 [1] [%]	ACR70 [1] [%]	ACR20 Diff. [2]	ACR50 Diff. [2]	ACR70 Diff. [2]	Highest Significant Clinical Disease Remission Score [2]
CN(Cc1cnc2nc(N)nc(N)c2n1)c1ccc(C(=O)N[C@@H](CCC(=O)O)C(=O)O)cc1 [METHOTREXATE]	46	23	9	20%	15* %	5%	ACR50 (ACR50 score pertaining to 50% improvement in the disease)
C[C@@H]1CCN(C(=O)CC#N)C[C@@H]1N(C)c1ncnc2[nH]ccc12 [TOFACITINIB]	–	–	–	66.5%	57.7%	20* %	ACR70 (ACR70 score pertaining to 70% improvement in the disease)
ANAKINRA	38	17	6	16* %	9%	4%	ACR20 (ACR20 score pertaining to 20% improvement in the disease)
DENOSUMAB	23	9	1	<0%	<0%	<0%	Non
ETANERCEPT	86	71	49	15%	29%	28* %	ACR70 (ACR70 score pertaining to 70% improvement in the disease)
RITUXIMAB	54	34	20	26%	21%	15* %	ACR70 (ACR70 score pertaining to 70% improvement in the disease)
SECUKINUMAB	54	27	12	23* %	12%	0%	ACR20 (ACR20 score pertaining to 20% improvement in the disease)
TOCILIZUMAB	74	53	37	33%	24%	21* %	ACR70 (ACR70 score pertaining to 70% improvement in the disease)
B1	62	0	0	36* %	0%	0%	ACR20 (ACR20 score pertaining to 20% improvement in the disease)
